Experimental data published in patent publication US4200626A, “Haloplatinate dental composition for preventing and inhibiting dental caries” (Toyo Seiyaku Kasei Co., Ltd., priority 1978, dated 1980).

Key:
[1] = test system: protease (collagenase or trypsin); experiment: Inhibition of protease digestion of the soft tissue in dentin (clear zone on opaque agar plates with decalcified dentin powder); type: biochemical; details: for Clear zone: aqueous solution pH 5.4
Protocol: The ability to inhibit digestion of the soft tissue in dentin was estimated according to the method described by Yanagida et al [Yanagida et al, Shonishikagaku Zasshi, Vol. 9, page 39 (1971)]. That is, firstly, a certain amount of human decalcified dentin powder was treated with a composition to be tested for certain minutes and then unbonded excess components were removed by dialysis to obtain a sample powder. Then, opaque agar plates were prepared by adding the sample powder, and a protease (collagenase or trypsin) was added to the plates. The inhibiting ability was estimated by observing whether a clear zone was formed on the plate or not. The clear zone is formed by dissolution of the powder with the enzyme, and the formation thereof means digestion of the soft tissue in dentin.
Each composition used in the test is an aqueous solution at pH 5.4.

[2] = Inhibition of acid decalcification of the hard tissue in dentin (human dentin powder); details: for Inhibition rate of decalcification: solution containing 2% platinum (or saturated) or 2% NaF, pH 5.4
Protocol: The ability to inhibit decalcification of the hard tissue was also estimated according to the method described by Nishino [Nishino, Osaka University Shigaku Zasshi, Vol. 1, page 1 (1969)]. That is, firstly, a certain amount of human dentin powder was treated with a composition to be tested for certain minutes and then unbonded excess components were removed by washing with water to obtain a sample powder. Then, the sample powder was treated with an acid solution (decalcification) and the amount of calcium in the solution, which was dissolved in the solution by action of the acid, was determined (sample calcium content). Similarly, untreated dentin powder was added to an acid solution and the amount of calcium in the acid solution was determined (control calcium content). From these values, the inhibition rate of decalcification was calculated as follows: [formula]
As a reference, a similar test was done by using an aqueous solution containing 2% of sodium fluoride (pH 5.4).

[3] = test system: mice; experiment: LD50 in mice (p.o.); type: in vivo
From the text: Further, the dental composition of the present invention is useful from a viewpont of toxicity since these platinum compounds have lower toxicity than that of NaF.

Structure (SMILES) | Clear zone ([1]; platinum content 0.001%) | Clear zone ([1]; platinum content 0.01%) | Clear zone ([1]; platinum content 0.1%) | Inhibition rate of decalcification ([2]; decalcification time 0.5 hour) [%] | Inhibition rate of decalcification ([2]; decalcification time 1.0 hour) [%] | Inhibition rate of decalcification ([2]; decalcification time 1.5 hour) [%] | Inhibition rate of decalcification ([2]; decalcification time 2.0 hour) [%] | Inhibition rate of decalcification ([2]; decalcification time 3.0 hour) [%] | Inhibition rate of decalcification ([2]; decalcification time 5.0 hour) [%] | Inhibition rate of decalcification ([2]; decalcification time 24.0 hour) [%] | Inhibition rate of decalcification ([2]; decalcification time 48.0 hour) [%] | LD50 (p.o.) [3] | inhibiting effect on decalcification of the hard tissue in dentin ([2]; result in words, from Table 2) | inhibition of the digestion ([1]; similar test using sodium fluoride, result in words)
[I-].[I-].[I-].[I-].[I-].[I-].[K+].[K+].[Pt+4] [K2 PtI6, potassium hexaiodoplatinate] | Present | None | None |  |  |  |  |  |  |  |  |  |  | 
[Cl][Pt-2]([Cl])([Cl])[Cl].[K+].[K+] [K2 PtCl4, potassium tetrachloroplatinate] | Present | None | None | 27.28 | 28.11 | 30.86 | 29.65 | 30.22 | 31.54 | 31.69 | 32.27 | 97 mg per kg of body weight |  | 
[Cl][Pt-2]([Cl])([Cl])([Cl])([Cl])[Cl].[NH4+].[NH4+] [(NH4)2 PtCl6, ammonium hexachloroplatinate] | Present | None | None |  |  |  |  |  |  |  |  |  |  | 
[Cl][Pt-2]([Cl])([Cl])([Cl])([Cl])[Cl].[Na+].[Na+] [Na2 PtCl6, sodium hexachloroplatinate] | Present | None | None | 43.42 | 45.23 | 45.15 | 45.36 | 47.57 | 47.77 | 48.00 | 48.20 | 130 mg per kg of body weight | superior inhibiting effect to that containing NaF at every decalcification time and the effect thereof is not decreased even though after 48 hours | 
[F-].[Na+] [NaF, sodium fluoride, reference compound] |  |  |  | 40.03 | 43.29 | 44.12 | 44.02 | 44.33 | 44.79 | 44.93 | 45.45 | about 90 mg per kg of body weight |  | no inhibition of the digestion was observed
